Reference: paper PMC12486805, “Preclinical evaluation of tridecaptin M: in vitro and in vivo efficacy against colistin-resistant Gram-negative bacterial pathogens and pharmacokinetics” (Antimicrobial Agents and Chemotherapy, 2025)
In brackets after ≈: the same amount, converted by molar mass. Where a SMILES comes first, the peptide text is derived from it. [ ]: non-standard residue; d: D form. The star is where a group is joined. d(aIle) = CC[C@H](C)[C@@H](N)C(=O)O; X1 = CC[C@H](C)CCCCC(=O)*; dDab = NCC[C@@H](N)C(=O)O; Dab = NCC[C@H](N)C(=O)O

Tests used:
[1] = in vitro; settings: human, microsomes, pH 7.4
Procedure: For without cofactors, 20 µL of PBS was added instead of pre-incubated cofactors. […] At each specified time, a 100 µL sample was taken, processed through a sample extraction procedure, and submitted for LC-MS/MS analysis ([35]). Half-life (t1/2) of test/control items was determined using the following equation
where, elimination rate constant (k) = −(slope of linear regression curve).

[2] = in vivo; settings: male, Sprague-Dawley, rat, plasma, 5 mg/kg; for Cmax / half-life: 5 mg/kg b.w.
Procedure: The samples were then centrifuged at 4,000 rpm for 10 min at 4°C to separate plasma, which was stored at −80°C until analysis.

[3] = tested on: E. coli; type: cell-based, Escherichia coli
Procedure: The MIC for all isolates was determined using the broth microdilution method. This involved preparing CA-MHB medium and serially diluting antibiotic solutions by a factor of two. The test organism was adjusted to a concentration of ≈5 × 10^5 CFU/mL. In a sterile 96-well microtiter plate, 100 µL of CA-MHB, along with 100 µL of each antibiotic, was added, and serial dilutions were made. A 100 µL suspension of the organism was added to each well and mixed, resulting in a total reaction volume of 200 µL per well. The plate was then incubated at 37°C for 16–18 h. The MIC was identified as the lowest concentration of antibiotic that prevented any visible growth of the organism ([16]).

[4] = target: T1, CYP1A2 (Homo sapiens, UniProt P05177); assay: biochemical; type: biochemical
T1 sequence (P05177 1-516): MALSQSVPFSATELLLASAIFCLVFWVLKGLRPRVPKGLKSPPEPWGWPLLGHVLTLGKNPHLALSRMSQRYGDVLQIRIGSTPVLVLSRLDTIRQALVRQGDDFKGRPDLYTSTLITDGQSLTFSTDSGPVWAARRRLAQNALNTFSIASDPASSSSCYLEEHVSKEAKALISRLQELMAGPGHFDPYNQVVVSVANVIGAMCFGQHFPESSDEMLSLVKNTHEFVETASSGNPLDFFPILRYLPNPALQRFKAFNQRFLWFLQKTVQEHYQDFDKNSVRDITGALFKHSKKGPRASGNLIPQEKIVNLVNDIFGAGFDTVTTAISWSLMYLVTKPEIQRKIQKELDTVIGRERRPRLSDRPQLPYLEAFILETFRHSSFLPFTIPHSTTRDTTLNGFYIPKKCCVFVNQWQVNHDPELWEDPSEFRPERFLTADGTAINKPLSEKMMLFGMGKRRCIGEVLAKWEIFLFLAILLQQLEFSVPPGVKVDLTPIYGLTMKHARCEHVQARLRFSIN
Procedure: (§1) The CYP inhibition assay was performed for test/control inhibitor items in duplicates using a 96-well fluorescence plate. An example of the preparation of CYP inhibition is given below in Table 8.
(§2) The plate with CYP master premix with test/control was incubated to allow the test/control samples to interact with CYP enzyme for 10 ± 1 min at 25°C under shaking conditions (400 rpm) using Thermomixer. The assay was initiated by adding 10 µL of a substrate and NADP^+ mixture to all wells, including a vehicle control and an assay blank. […] After incubation, the reaction was quenched by adding 50 µL of stop reagent (0.5 M Tris base) to each well.

[5] = in vitro; settings: mouse, plasma, % Binding to Plasma Protein
Procedure: (§3) Plasma protein binding was assessed using the rapid equilibrium dialysis (RED) method, utilizing RED insert devices with a dialysis membrane featuring an 8,000 Dalton molecular weight cutoff for proteins. The test/control items in human, rat, and mouse plasma were prepared at a test concentration of 10 µM using 10 mM DMSO stocks, and the samples were added to the plasma chamber of the RED insert. The device was sealed with tape and incubated in a thermomixer at 37°C with shaking at 300 rpm for 4 h. Following incubation, a 50 µL aliquot of plasma and buffer was collected from each insert and diluted with an equal volume of the opposite matrix to mitigate matrix effects. The samples were quantified using LC-MS/MS analysis and were tested in duplicates.

[6] = in vitro; settings: rat, plasma, % Binding to Plasma Protein
Procedure: as §3

[7] = 12 mg/kg every 2 h up to 12 h, total 72 mg/kg; cited from earlier work
[8] = tested on: mammalian cell lines; settings: cited from earlier work
[9] = target: CYP2C19 (Homo sapiens, UniProt P33261); assay: CYP inhibition assay, recombinant isoform, fluorescence; type: biochemical
Sequence of CYP2C19 (P33261 whole entry, canonical isoform): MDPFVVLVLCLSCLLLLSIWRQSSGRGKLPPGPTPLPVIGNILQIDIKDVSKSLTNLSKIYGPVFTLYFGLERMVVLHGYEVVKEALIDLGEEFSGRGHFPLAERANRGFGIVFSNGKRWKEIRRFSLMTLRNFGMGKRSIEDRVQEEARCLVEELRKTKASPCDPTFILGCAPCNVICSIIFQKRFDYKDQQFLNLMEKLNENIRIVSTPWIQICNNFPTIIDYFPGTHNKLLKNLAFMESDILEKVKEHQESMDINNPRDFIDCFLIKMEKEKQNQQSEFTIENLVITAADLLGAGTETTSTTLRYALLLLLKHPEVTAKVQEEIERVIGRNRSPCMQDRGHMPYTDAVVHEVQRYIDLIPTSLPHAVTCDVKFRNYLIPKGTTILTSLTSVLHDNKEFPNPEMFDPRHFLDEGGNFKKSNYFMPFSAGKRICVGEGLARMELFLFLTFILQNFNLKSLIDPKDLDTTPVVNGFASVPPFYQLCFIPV
Procedure: as §1, §2

[10] = target: CYP2D6 (Homo sapiens, UniProt P10635); assay: as above; type: biochemical
Sequence of CYP2D6 (P10635 whole entry): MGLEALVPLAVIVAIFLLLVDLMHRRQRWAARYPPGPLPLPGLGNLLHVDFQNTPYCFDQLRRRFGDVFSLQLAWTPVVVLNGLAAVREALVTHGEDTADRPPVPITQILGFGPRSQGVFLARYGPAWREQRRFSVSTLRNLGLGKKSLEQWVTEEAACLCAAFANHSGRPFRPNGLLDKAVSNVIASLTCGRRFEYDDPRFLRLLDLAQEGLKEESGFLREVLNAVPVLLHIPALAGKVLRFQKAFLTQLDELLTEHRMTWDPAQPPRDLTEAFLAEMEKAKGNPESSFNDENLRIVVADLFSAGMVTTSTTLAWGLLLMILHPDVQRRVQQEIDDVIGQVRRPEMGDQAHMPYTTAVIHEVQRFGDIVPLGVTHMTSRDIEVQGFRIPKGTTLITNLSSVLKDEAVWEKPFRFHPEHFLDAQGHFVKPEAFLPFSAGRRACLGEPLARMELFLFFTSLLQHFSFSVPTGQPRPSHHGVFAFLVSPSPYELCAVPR
Procedure: as §1, §2

[11] = target: CYP3A4 (Homo sapiens, UniProt P08684); assay: as above; type: biochemical
Sequence of CYP3A4 (P08684 whole entry): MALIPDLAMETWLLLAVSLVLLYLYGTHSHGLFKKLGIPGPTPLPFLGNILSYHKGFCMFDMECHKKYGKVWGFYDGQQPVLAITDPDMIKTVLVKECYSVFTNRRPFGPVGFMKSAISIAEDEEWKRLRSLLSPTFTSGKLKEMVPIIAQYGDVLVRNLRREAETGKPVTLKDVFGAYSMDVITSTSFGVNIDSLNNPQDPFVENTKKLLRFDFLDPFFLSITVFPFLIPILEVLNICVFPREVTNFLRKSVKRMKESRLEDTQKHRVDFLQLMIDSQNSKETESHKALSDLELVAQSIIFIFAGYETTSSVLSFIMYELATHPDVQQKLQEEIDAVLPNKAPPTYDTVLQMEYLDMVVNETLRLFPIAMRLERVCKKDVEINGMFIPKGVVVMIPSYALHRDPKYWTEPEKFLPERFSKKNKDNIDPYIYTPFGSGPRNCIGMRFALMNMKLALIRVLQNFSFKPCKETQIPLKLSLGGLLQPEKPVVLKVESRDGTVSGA
Procedure: as §1, §2

CC[C@H](C)CCCCC(=O)NCC(=O)N[C@H](CCN)C(=O)NCC(=O)N[C@H](CO)C(=O)N[C@H](Cc1c[nH]c2ccccc12)C(=O)N[C@@H](CO)C(=O)N[C@@H](CCN)C(=O)N[C@H](CCN)C(=O)N[C@H](C(=O)N[C@@H](CCC(=O)O)C(=O)N[C@H](C(=O)N[C@@H](C(=O)N[C@@H](CO)C(=O)O)[C@@H](C)CC)[C@@H](C)CC)[C@@H](C)CC [Tridecaptin M, tridecaptin M] (X1-G[dDab]G[dS][dW]S[Dab][dDab]IEI[d(aIle)]S-OH)
half-life [1]: 1.31 h | microsomal CLint [1]: 17.6 µL/min/mg | remaining at 0.25 h [1]: 58% | remaining at 0.5 h [1]: 50.2% | remaining at 1 h [1]: 53.7% | remaining at 2 h [1]: 48.4% | AUC(0-t) ([2]; iv): 94.6 ± 45 µg·h/mL | MRT last ([2]; iv): 2.69 ± 1.02 h | Vd ([2]; iv): 0.16 ± 0.04 L/kg | clearance ([2]; iv): 0.06 ± 0.0198 L/h/kg | Cmax ([2]; iv): 38.5 µg/mL | half-life ([2]; iv, T1/2, intravenous): 3.65 ± 0.56 h | AUC(0-t) ([2]; sc): 14.1 ± 2.09 µg·h/mL | MRT last ([2]; sc): 8.81 ± 2.1 h | Cmax ([2]; sc, subcutaneous): 9.15 ± 1.7 µg/mL | half-life ([2]; sc, T1/2, subcutaneous): 8.81 h | MIC [3]: 4 mg/L (≈ 2.69 µM) | MIC50 [3]: 4 mg/L (≈ 2.69 µM) | MIC range [3]: 1 to 8 mg/L | MIC values [3]: 2 to 8 mg/L | IC50 [4]: > 30 µM | inhibition at 25 min, 0.01 µM ([4]; human, % inhibition CYP 1A2): < 0% | inhibition at 25 min, 0.03 µM ([4]; human, % inhibition CYP 1A2): < 0% | inhibition at 25 min, 0.1 µM ([4]; human, % inhibition CYP 1A2): < 0% | inhibition at 25 min, 0.3 µM ([4]; human, % inhibition CYP 1A2): < 0% | inhibition at 25 min, 1 µM ([4]; human, % inhibition CYP 1A2): < 0% | inhibition at 25 min, 3 µM ([4]; human, % inhibition CYP 1A2): < 0% | inhibition at 25 min, 10 µM ([4]; human, % inhibition CYP 1A2): < 0% | inhibition at 25 min, 30 µM ([4]; human, % inhibition CYP 1A2): ≤ 0% | fraction unbound at 4 h, 10 µM [5]: 0.5 | fraction unbound at 4 h, 10 µM [6]: 0.465 | tolerance in acute toxicity study [7]: good tolerance | cytotoxicity [8]: non-cytotoxic | IC50 [9]: > 30 µM | inhibition at 25 min, 0.01 µM ([9]; human): < 0% | inhibition at 25 min, 0.03 µM ([9]; human): < 0% | inhibition at 25 min, 0.1 µM ([9]; human): < 0% | inhibition at 25 min, 0.3 µM ([9]; human): < 0% | inhibition at 25 min, 1 µM ([9]; human): < 0% | inhibition at 25 min, 3 µM ([9]; human): 0.13% | inhibition at 25 min, 10 µM ([9]; human): 5.67% | inhibition at 25 min, 30 µM ([9]; human): 11.7% | IC50 [10]: > 30 µM | inhibition at 25 min, 0.01 µM ([10]; human): < 0% | inhibition at 25 min, 0.03 µM ([10]; human): < 0% | inhibition at 25 min, 0.1 µM ([10]; human): < 0% | inhibition at 25 min, 0.3 µM ([10]; human): < 0% | inhibition at 25 min, 1 µM ([10]; human): < 0% | inhibition at 25 min, 3 µM ([10]; human): 1.28% | inhibition at 25 min, 10 µM ([10]; human): 10.9% | inhibition at 25 min, 30 µM ([10]; human): 13.1% | IC50 [11]: > 30 µM | inhibition at 25 min, 0.01 µM ([11]; human): < 0% | inhibition at 25 min, 0.03 µM ([11]; human): < 0% | inhibition at 25 min, 0.1 µM ([11]; human): < 0% | inhibition at 25 min, 0.3 µM ([11]; human): < 0% | inhibition at 25 min, 1 µM ([11]; human): 3.77% | inhibition at 25 min, 3 µM ([11]; human): 9% | inhibition at 25 min, 10 µM ([11]; human): 28% | inhibition at 25 min, 30 µM ([11]; human): 26.6%
